Assay results from patent US20260308185A1, “STAT DEGRADERS AND USES THEREOF” (Recludix Pharma, Inc., priority 2023, published 2026).

How the values were obtained:
[1] = system: pSTAT3 (pY705-STAT3) in PBMC; test: MSD-pSTAT-PBMC Assay (pSTAT3); format: cell-based; conditions: compound 3 hrs, then 10 ng/mL IL-6 for 10 min
Source text: (§1) Cryopreserved Peripheral Blood Mononuclear Cells (PBMC) are from AllCells. Recombinant Human […] and IL-6 are from Peprotech. Mouse monoclonal anti-STAT3 antibody, rabbit monoclonal anti-pY705-STAT3 antibody, rabbit monoclonal Anti-pY641-STAT6 antibody, and lysis buffer are from Cell Signaling Technology (CST). Mouse monoclonal anti-STAT6 antibody is from BioLegend. Assay plates, blocker, and anti-rabbit secondary antibody are from Meso Scale Discovery (MSD).
(§2) Cryopreserved PBMCs were thawed out and allowed to recover overnight in IMDM+10% heat-inactivated FBS prior to plating 50,000 (STAT3) or 25,000 (STAT6) cells per well in 96-well U-bottom tissue culture plates. Cells were treated with compound for 3 hrs, then stimulated with 10 ng/mL IL-6 (STAT3) or 1 ng/mL IL-4 (STAT6) for 10 min. Cells were then spun down and washed with ice-cold PBS prior to lysing the cell pellet with 1× lysis buffer (CST) with 1× HALT protease and phosphatase inhibitor cocktail (Thermo). Lysates were transferred to and incubated overnight at 4° C. with shaking in QuickPlex 96-well high bind assay plates (MSD) pre-coated overnight with 30 μL per well of 0.6 μg/mL mouse monoclonal anti-STAT3 antibody (STAT3) or 2 μg/mL mouse monoclonal anti-STAT6 antibody (STAT6) in 1×PBS, and pre-blocked for 1 hour with 3% Blocker-A (MSD). Captured protein in the assay plates were then washed and probed with 25 μL per well of 0.25 μg/ml rabbit monoclonal anti-pY705-STAT3 antibody (STAT3) or 0.18 μg/ml rabbit monoclonal Anti-pY641-STAT6 antibody (STAT6) in 1% Blocker-A for 1 hour at room temperature with shaking, then washed and probed with 25 ul per well of 1 ug/ml Sulfo-TAG Labeled Goat Anti-Rabbit Antibody (MSD) in 1% Blocker-A for 1 hour at room temperature with shaking. Assay plates were then washed and 150 μL of 1× Read Buffer-T (MSD) was added to each well prior to reading on an SQ120 MSD Plate Reader. Assay signal from each sample was subtracted by the signal from unstimulated control wells and normalized to DMSO control wells, IC50 values were calculated using Graph Pad Prism Dose-Response Nonlinear Regression with variable slope. For both pSTAT3 and pSTAT6 A=≤100 nM; B=>100-1000 nM; C=>1000-3000 nM; and D=>3 μM.

[2] = target: T1, Recombinant STAT6 protein (STAT6(W123-T658)) (Homo sapiens, UniProt P42226); test: STAT6 Fluorescence Polarization (FP) Assay; format: binding; conditions: 250 nM STAT6(W123-T658), 2 nM 5-FAM-Ap[…]-NH2 probe, pH 7.4, 45-minute incubation at room temperature
T1 construct: Recombinant STAT6 protein (STAT6(W123-T658))
T1 sequence (P42226 123-658): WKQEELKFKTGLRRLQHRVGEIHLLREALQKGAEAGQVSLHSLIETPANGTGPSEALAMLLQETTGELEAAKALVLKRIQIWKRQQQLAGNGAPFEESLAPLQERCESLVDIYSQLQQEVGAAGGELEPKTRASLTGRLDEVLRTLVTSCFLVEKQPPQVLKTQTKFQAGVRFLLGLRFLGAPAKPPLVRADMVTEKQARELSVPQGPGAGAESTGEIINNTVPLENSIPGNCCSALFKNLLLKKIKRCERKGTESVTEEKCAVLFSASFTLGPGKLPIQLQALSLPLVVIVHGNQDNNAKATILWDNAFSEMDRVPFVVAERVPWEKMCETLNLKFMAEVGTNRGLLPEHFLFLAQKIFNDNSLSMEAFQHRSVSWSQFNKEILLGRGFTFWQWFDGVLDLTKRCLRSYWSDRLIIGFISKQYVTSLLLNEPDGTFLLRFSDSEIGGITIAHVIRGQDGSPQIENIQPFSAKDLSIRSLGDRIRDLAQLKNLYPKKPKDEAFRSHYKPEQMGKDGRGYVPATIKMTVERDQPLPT
Protocol: An FP assay was developed to determine IC50 values for test substances. Recombinant STAT6 protein (STAT6(W123-T658)) at 250 nM was combined with a fluorescently labeled, phosphotyrosine peptide probe (5-FAM-Ap[…]-NH2) at 2 nM in FP buffer (10 mM HEPES pH 7.4, 50 mM NaCl, 1 mM EDTA, 0.05% Tween 20, 2 mM DTT). 50 μL of STAT6-probe mixture was added to serial diluted compounds in black, 96-well plates (Greiner BioOne 655076) to a final concentration of 1% DMSO. Reaction components were mixed, and FP w as measured after 45-minute incubation at room temperature using a Tecan Spark multimode plate reader. FP signal (mP) was plotted against the log concentration of the test substances and IC50 values were calculated by nonlinear regression analysis using GraphPad Prism software. For STAT6 FP assay. A=≤300 nM; B=>300-3000 nM; C=>3-30 μM; and D=>30 μM.

[3] = system: pSTAT6 (pY641-STAT6) in PBMC; test: MSD-pSTAT-PBMC Assay (pSTAT6); format: cell-based; conditions: compound 3 hrs, then 1 ng/mL IL-4 for 10 min
Source text: as §1, §2

[4] = target: T2, Recombinant STAT3 protein (STAT3(G127-I722)) (Homo sapiens, UniProt P40763); test: STAT3 Fluorescence Polarization (FP) Assay; format: binding; conditions: 25 nM STAT3(G127-I722), 2 nM 5-FAM-GpYLPQTV-NH2 probe, pH 7.4, 45-minute incubation at room temperature
T2 construct: Recombinant STAT3 protein (STAT3(G127-I722))
T2 sequence (P40763 127-722): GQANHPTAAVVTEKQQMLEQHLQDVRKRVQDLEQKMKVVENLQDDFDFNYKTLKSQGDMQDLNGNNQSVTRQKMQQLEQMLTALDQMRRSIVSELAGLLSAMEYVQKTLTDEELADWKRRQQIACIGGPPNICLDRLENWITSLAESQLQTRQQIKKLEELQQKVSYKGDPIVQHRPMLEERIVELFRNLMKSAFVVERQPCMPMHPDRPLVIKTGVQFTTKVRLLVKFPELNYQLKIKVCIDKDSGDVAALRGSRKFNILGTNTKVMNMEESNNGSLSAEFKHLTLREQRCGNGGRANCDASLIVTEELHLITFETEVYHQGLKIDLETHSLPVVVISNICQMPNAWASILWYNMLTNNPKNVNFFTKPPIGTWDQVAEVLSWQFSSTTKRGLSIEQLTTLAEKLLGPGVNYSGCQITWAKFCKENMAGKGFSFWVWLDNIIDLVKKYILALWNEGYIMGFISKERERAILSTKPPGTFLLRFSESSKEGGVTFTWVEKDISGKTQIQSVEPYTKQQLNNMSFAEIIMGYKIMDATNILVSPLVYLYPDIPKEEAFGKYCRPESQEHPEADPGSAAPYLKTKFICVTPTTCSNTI
Protocol: An FP assay was developed to determine IC50 values for test substances. Recombinant STAT3 protein (STAT3(G127-I722)) at 25 nM was combined with a fluorescently labeled, phosphotyrosine peptide probe (5-FAM-GpYLPQTV-NH2) at 2 nM in FP buffer (10 mM HEPES pH 7.4, 50 mM NaCl. 1 mM EDTA, 0.05% Tween 20, 2 mM DTT). 50 μL of STAT3-probe mixture was added to serial diluted compounds in black, 96-well plates (Greiner BioOne 655076) to a final concentration of 1% DMSO. Reaction components were mixed, and FP was measured after 45-minute incubation at room temperature using a Tecan Spark multimode plate reader. FP signal (mP) was plotted against the log concentration of the test substances and IC50 values were calculated by nonlinear regression analysis using GraphPad Prism software. For STAT3 FP assay, A=≤100 nM; B=>100-1000 nM; C=>1-10 μM; and D=>10 μM.

IC50 [2]	IC50 [4]	SMILES	IC50 [1]	IC50 [3]
< 300 nM	100 to 1000 nM	N#CC1CN(C(=O)C2CCC3CC4CC4CC(NC(=O)c4cc5cc(C(F)(F)P(=O)(O)O)ccc5s4)C(=O)N32)CC1c1cccc(N2CCN(c3ccc4c(c3)[nH]c(=O)n4C3CCC(=O)NC3=O)CC2)c1 [Compound 13, ((2-(((3S,6S,7aS,8aR,9aR)-3-((rel-3S,4R)-3-cyano-4-(3-(4-(1-(2,6-dioxopiperidin-3-yl)-2-oxo-2,3-dihydro-1H-benzo[d]imidazol-5-yl)piperazin-1-yl)phenyl)pyrrolidine-1-carbonyl)-5-oxodecahydro-1H-cyclopropa[d]pyrrolo[1,2-a]azocin-6-yl)carbamoyl)benzo[b]thiophen-5-yl)difluoromethyl)phosphonic acid]	–	100 to 1000 nM
< 300 nM	100 to 1000 nM	O=C1CCC(c2ccc(OCCCCCn3ccc([C@@H]4CN(C(=O)[C@@H]5CC[C@@H]6C[C@H]7C[C@H]7C[C@H](NC(=O)c7cc8cc(C(F)(F)P(=O)(O)O)ccc8s7)C(=O)N65)C5(CC5)C4)cc3=O)cc2)C(=O)N1 (stereo partly drawn) [Compound 10, ((2-(((3S,6S,7aS,8aR,9aR)-3-((6R)-6-(1-(5-(4-(2,6-dioxopiperidin-3-yl)phenoxy)pentyl)-2-oxo-1,2-dihydropyridin-4-yl)-4-azaspiro[2.4]heptane-4-carbonyl)-5-oxodecahydro-1H-cyclopropa[d]pyrrolo[1,2-a]azocin-6-yl)carbamoyl)benzo[b]thiophen-5-yl)difluoromethyl)phosphonic acid]	–	1000 to 3000 nM
300 to 3000 nM	100 to 1000 nM	O=C1CCC(N2Cc3c(C#CCCCCCCn4ccc([C@@H]5CN(C(=O)[C@@H]6CC[C@@H]7C[C@H]8C[C@H]8C[C@H](NC(=O)c8cc9cc(C(F)(F)P(=O)(O)O)ccc9s8)C(=O)N76)C6(CC6)C5)cc4=O)cccc3C2=O)C(=O)N1 (stereo partly drawn) [Compound 5, ((2-(((3S,6S,7aS,8aR,9aR)-3-((6R)-6-(1-(8-(2-(2,6-dioxopiperidin-3-yl)-1-oxoisoindolin-4-yl)oct-7-yn-1-yl)-2-oxo-1,2-dihydropyridin-4-yl)-4-azaspiro[2.4]heptane-4-carbonyl)-5-oxodecahydro-1H-cyclopropa[d]pyrrolo[1,2-a]azocin-6-yl)carbamoyl)benzo[b]thiophen-5-yl)difluoromethyl)phosphonic acid]	–	100 to 1000 nM
300 to 3000 nM	1000 to 10000 nM	O=C1CCC(N2Cc3c(OCCOCCOCCn4ccc([C@@H]5CN(C(=O)[C@@H]6CC[C@@H]7C[C@H]8C[C@H]8C[C@H](NC(=O)c8cc9cc(C(F)(F)P(=O)(O)O)ccc9s8)C(=O)N76)C6(CC6)C5)cc4=O)cccc3C2=O)C(=O)N1 (stereo partly drawn) [Compound 17, ((2-(((3S,6S,7aS,8aR,9aR)-3-((6R)-6-(1-(2-(2-(2-((2-(2,6-dioxopiperidin-3-yl)-1-oxoisoindolin-4-yl)oxy)ethoxy)ethoxy)ethyl)-2-oxo-1,2-dihydropyridin-4-yl)-4-azaspiro[2.4]heptane-4-carbonyl)-5-oxodecahydro-1H-cyclopropa[d]pyrrolo[1,2-a]azocin-6-yl)carbamoyl)benzo[b]thiophen-5-yl)difluoromethyl)phosphonic acid]	–	> 3000 nM

More lines, now with the values behind:

SMILES	IC50 [2]	IC50 [4]	IC50 [1]	IC50 [3]
CCCC(=O)SCCOP(=O)(OCCSC(=O)CCC)C(F)(F)c1ccc2sc(C(=O)N[C@H]3C[C@@H]4C[C@@H]4C[C@H]4CCC(C(=O)N5CC(c6cnccc6N6CCN(C(=O)COc7ccc(C8CCC(=O)NC8=O)cc7)CC6)C5)N4C3=O)cc2c1 (stereo partly drawn) [Compound 22, S,S′-(((((2-(((3S,6S,7aS,8aR,9aR)-3-(3-(4-(4-(2-(4-(2,6-dioxopiperidin-3-yl)phenoxy)acetyl)piperazin-1-yl)pyridin-3-yl)azetidine-1-carbonyl)-5-oxodecahydro-1H-cyclopropa[d]pyrrolo[1,2-a]azocin-6-yl)carbamoyl)benzo[b]thiophen-5-yl)difluoromethyl)phosphoryl)bis(oxy))bis(ethane-2,1-diyl)) dibutanethioate]	–	–	< 100 nM	–
CCCC(=O)SCCOP(=O)(OCCSC(=O)CCC)C(F)(F)c1ccc2sc(C(=O)NC3CC4CC4CC4CCC(C(=O)N5CC(c6cnccc6N(C)CCOc6ccc(C7CCC(=O)NC7=O)cc6)C5)N4C3=O)cc2c1 [Compound 12, S,S′-(((((2-(((3S,6S,7aS,8aR,9aR)-3-(3-(4-((2-(4-(2,6-dioxopiperidin-3-yl)phenoxy)ethyl)(methyl)amino)pyridin-3-yl)azetidine-1-carbonyl)-5-oxodecahydro-1H-cyclopropa[d]pyrrolo[1,2-a]azocin-6-yl)carbamoyl)benzo[b]thiophen-5-yl)difluoromethyl)phosphoryl)bis(oxy))bis(ethane-2,1-diyl)) dibutanethioate]	–	–	< 100 nM	–
CCCC(=O)SCCOP(=O)(OCCSC(=O)CCC)C(F)(F)c1ccc2sc(C(=O)NC3CC4CC4CC4CCC(C(=O)N5CC(NC(=O)CCCCCC#Cc6cccc7c6CN(C6CCC(=O)NC6=O)C7=O)(c6ccccn6)C5)N4C3=O)cc2c1 [Compound 2, S,S′-(((((2-(((3S,6S,7aS,8aR,9aR)-3-(3-(8-(2-(2,6-dioxopiperidin-3-yl)-1-oxoisoindolin-4-yl)oct-7-ynamido)-3-(pyridin-2-yl)azetidine-1-carbonyl)-5-oxodecahydro-1H-cyclopropa[d]pyrrolo[1,2-a]azocin-6-yl)carbamoyl)benzo[b]thiophen-5-yl)difluoromethyl)phosphoryl)bis(oxy))bis(ethane-2,1-diyl)) dibutanethioate]	–	–	< 100 nM	> 3000 nM
